We go through 33 compounds from patent US8541588B2, “Sulfonamide derivatives” (Pfizer Limited, priority 2009, dated 2013).

Each structure is given as a SMILES string.

T1 sequence (Q15858 whole entry): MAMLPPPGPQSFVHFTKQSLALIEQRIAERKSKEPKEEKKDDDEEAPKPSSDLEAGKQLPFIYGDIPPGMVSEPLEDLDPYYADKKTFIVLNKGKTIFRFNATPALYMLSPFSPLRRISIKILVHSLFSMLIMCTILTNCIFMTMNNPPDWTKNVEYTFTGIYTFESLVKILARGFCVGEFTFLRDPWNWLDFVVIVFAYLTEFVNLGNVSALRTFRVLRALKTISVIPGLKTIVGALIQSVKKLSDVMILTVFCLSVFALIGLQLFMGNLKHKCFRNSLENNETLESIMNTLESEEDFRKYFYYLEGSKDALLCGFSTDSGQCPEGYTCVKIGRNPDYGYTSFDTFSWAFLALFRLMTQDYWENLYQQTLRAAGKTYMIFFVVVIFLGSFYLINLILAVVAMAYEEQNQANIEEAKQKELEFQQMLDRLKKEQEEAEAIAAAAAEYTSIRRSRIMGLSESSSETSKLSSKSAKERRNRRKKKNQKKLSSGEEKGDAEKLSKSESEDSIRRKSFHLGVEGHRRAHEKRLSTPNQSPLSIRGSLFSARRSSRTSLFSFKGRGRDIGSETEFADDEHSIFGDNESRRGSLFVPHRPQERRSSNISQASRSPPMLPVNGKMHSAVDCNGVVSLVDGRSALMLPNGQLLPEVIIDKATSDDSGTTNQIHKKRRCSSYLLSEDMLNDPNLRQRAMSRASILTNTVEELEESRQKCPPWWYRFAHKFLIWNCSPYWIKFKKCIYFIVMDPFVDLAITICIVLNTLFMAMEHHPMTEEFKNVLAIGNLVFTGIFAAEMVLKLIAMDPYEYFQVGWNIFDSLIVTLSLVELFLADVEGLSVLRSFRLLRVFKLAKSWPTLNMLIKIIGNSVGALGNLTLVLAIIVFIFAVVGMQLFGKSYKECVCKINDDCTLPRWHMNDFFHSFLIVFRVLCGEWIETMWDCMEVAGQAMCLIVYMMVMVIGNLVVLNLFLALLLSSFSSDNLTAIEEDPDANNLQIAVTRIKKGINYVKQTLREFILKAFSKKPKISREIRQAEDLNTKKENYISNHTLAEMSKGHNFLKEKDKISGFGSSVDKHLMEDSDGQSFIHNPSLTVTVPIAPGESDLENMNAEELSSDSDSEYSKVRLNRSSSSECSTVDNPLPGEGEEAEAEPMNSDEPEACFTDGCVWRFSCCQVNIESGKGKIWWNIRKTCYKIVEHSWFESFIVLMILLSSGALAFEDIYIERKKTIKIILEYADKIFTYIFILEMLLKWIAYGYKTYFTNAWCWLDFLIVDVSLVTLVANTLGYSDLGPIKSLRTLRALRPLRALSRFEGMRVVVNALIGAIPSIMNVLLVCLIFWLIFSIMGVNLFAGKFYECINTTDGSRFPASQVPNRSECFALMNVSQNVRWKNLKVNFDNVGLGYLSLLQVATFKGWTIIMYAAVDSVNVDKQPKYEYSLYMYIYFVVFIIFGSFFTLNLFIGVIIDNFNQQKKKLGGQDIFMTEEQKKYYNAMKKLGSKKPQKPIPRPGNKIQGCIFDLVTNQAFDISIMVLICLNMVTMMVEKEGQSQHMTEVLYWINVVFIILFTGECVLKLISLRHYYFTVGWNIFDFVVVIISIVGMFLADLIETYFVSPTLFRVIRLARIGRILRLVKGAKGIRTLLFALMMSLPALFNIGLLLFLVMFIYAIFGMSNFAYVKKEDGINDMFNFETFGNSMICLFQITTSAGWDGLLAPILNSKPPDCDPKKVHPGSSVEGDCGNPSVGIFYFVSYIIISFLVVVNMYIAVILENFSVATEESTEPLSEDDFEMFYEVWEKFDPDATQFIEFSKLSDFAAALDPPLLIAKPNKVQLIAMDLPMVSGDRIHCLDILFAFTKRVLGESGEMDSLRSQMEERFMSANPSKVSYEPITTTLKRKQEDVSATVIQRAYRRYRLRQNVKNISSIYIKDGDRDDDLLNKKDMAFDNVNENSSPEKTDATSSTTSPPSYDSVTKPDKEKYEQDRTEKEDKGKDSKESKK

The assay has as its target T1, Nav1.7 (or SCN9A) channel; HEK cells stably transfected with hSCN9A (Homo sapiens, UniProt Q15858).
T1 construct: expressed in transfected cells
Put plainly: Nav1.7 block, PatchXpress 7000 automated whole-cell voltage clamp, estimated IC50 (EIC50). In kind it is cell-based. Particulars: estimated IC50; hSCN9A HEK cells, PatchXpress platform; Examples 815-1040.
With `CN(C)c1n[nH]cc1-c1cc(Cl)ccc1Oc1cc(F)c(S(=O)(=O)Nc2nncs2)cc1Cl` [Example 870, 5-chloro-4-{4-chloro-2-[3-(dimethylamino)-1H-pyrazol-4-yl]phenoxy}-2-fluoro-N-1,3,4-thiadiazol-2-ylbenzenesulfonamide], the IC50 is 140 nM.

Turning to `Cc1nsc(NS(=O)(=O)c2cc(Cl)c(Oc3ccc(C(F)(F)F)cc3-c3ccnnc3)cc2F)n1` [Example 871, 5-chloro-2-fluoro-N-(3-methyl-1,2,4-thiadiazol-5-yl)-4-[2-pyridazin-4-yl-4-(trifluoromethyl)phenoxy]benzenesulfonamide], the IC50 is 25 nM. `Cc1nsc(NS(=O)(=O)c2cc(Cl)c(Oc3ccc(Cl)cc3-c3c[nH]nc3N)cc2F)n1` [Example 872, 4-[2-(3-amino-1H-pyrazol-4-yl)-4-chlorophenoxy]-5-chloro-2-fluoro-N-(3-methyl-1,2,4-thiadiazol-5-yl)benzenesulfonamide]: the IC50 was 12 nM. As for `O=S(=O)(Nc1nncs1)c1cc(F)c(Oc2ccc(Cl)cc2-c2cc(N3CCOCC3)ncn2)cc1F` [Example 873, 4-[4-chloro-2-(6-morpholin-4-ylpyrimidin-4-yl)phenoxy]-2,5-difluoro-N-1,3,4-thiadiazol-2-ylbenzenesulfonamide], the IC50 was 3900 nM.

`N#Cc1cc(S(=O)(=O)Nc2ncns2)ccc1Oc1ccc(Cl)cc1-c1cccc(CN2CC(F)(F)C2)n1` [Example 874, 4-(4-chloro-2-{6-[(3,3-difluoroazetidin-1-yl)methyl]pyridin-2-yl}phenoxy)-3-cyano-N-1,2,4-thiadiazol-5-ylbenzenesulfonamide]: the IC50 is 350 nM. In the case of `N#Cc1cc(S(=O)(=O)Nc2ncns2)ccc1Oc1ccc(Cl)cc1-c1cc(N2CCNCC2)ncn1` [Example 875, 4-[4-chloro-2-(6-piperazin-1-ylpyrimidin-4-yl)phenoxy]-3-cyano-N-1,2,4-thiadiazol-5-ylbenzenesulfonamide] it was 50 nM. For the compound `N#Cc1cc(S(=O)(=O)Nc2nncs2)ccc1Oc1ccc(Cl)cc1-c1cc(N2CCOCC2)ncn1` [Example 876, 4-[4-chloro-2-(6-morpholin-4-ylpyrimidin-4-yl)phenoxy]-3-cyano-N-1,3,4-thiadiazol-2-ylbenzenesulfonamide], the IC50 was above 1000 nM.

As for `N#Cc1cc(S(=O)(=O)Nc2ncns2)ccc1Oc1ccc(Cl)cc1-c1cc(N2CCC2)ncn1` [Example 877, 4-[2-(6-azetidin-1-ylpyrimidin-4-yl)-4-chlorophenoxy]-3-cyano-N-1,2,4-thiadiazol-5-ylbenzenesulfonamide], the IC50 was 470 nM.

Consider `N#Cc1cc(S(=O)(=O)Nc2ncns2)ccc1Oc1ccc(OC(F)(F)F)cc1-c1ccnnc1` [Example 878, 3-cyano-4-[2-pyridazin-4-yl-4-(trifluoromethoxy)phenoxy]-N-1,2,4-thiadiazol-5-ylbenzenesulfonamide], for which the IC50 is 5.8 nM. In the case of `O=S(=O)(Nc1ncns1)c1cc(F)c(Oc2ccc(Cl)cc2-c2ccnnc2)cc1F` [Example 879, 4-(4-chloro-2-pyridazin-4-ylphenoxy)-2,5-difluoro-N-1,2,4-thiadiazol-5-ylbenzenesulfonamide] it was 7 nM. Consider `N#Cc1cc(S(=O)(=O)Nc2ncns2)ccc1Oc1ccc(Cl)cc1-c1ccon1` [Example 880, 4-(4-chloro-2-isoxazol-3-ylphenoxy)-3-cyano-N-1,2,4-thiadiazol-5-ylbenzenesulfonamide], for which the IC50 was 110 nM. In the case of `Cn1nccc1-c1cc(Cl)ccc1Oc1ccc(S(=O)(=O)Nc2ncccn2)cc1C#N` [Example 881, 4-[4-chloro-2-(1-methyl-1H-pyrazol-5-yl)phenoxy]-3-cyano-N-pyrimidin-2-ylbenzenesulfonamide] it was 260 nM; in that of `N#Cc1cc(S(=O)(=O)Nc2ncns2)ccc1Oc1ccc(Cl)cc1-c1ccnn1C1CCOC1` (stereo not drawn) [Example 882, 4-{4-chloro-2-[1-(tetrahydrofuran-3-yl)-1H-pyrazol-5-yl]phenoxy}-3-cyano-N-1,2,4-thiadiazol-5-ylbenzenesulfonamide], 40 nM.

For the compound `Cc1cc(NS(=O)(=O)c2ccc(Oc3ccc(Cl)cc3-c3ccnn3C)c(C#N)c2)no1` [Example 883, 4-[4-chloro-2-(1-methyl-1H-pyrazol-5-yl)phenoxy]-3-cyano-N-(5-methylisoxazol-3-yl)benzenesulfonamide], the IC50 was 14000 nM. In the case of `CN1CC(n2nccc2-c2cc(Cl)ccc2Oc2cc(F)c(S(=O)(=O)Nc3nncs3)cc2Cl)C1` [Example 884, 5-chloro-4-{4-chloro-2-[1-(1-methylazetidin-3-yl)-1H-pyrazol-5-yl]phenoxy}-2-fluoro-N-1,3,4-thiadiazol-2-ylbenzenesulfonamide] it was 36 nM; in that of `Cn1nccc1-c1cc(Cl)ccc1Oc1ccc(S(=O)(=O)Nc2cnccn2)cc1C#N` [Example 885, 4-[4-chloro-2-(1-methyl-1H-pyrazol-5-yl)phenoxy]-3-cyano-N-pyrazin-2-ylbenzenesulfonamide], 6300 nM. In the case of `CCOc1nnc(NS(=O)(=O)c2ccc(Oc3ccc(Cl)cc3-c3ccnn3C)c(C#N)c2)s1` [Example 886, 4-[4-chloro-2-(1-methyl-1H-pyrazol-5-yl)phenoxy]-3-cyano-N-(5-ethoxy-1,3,4-thiadiazol-2-yl)benzenesulfonamide] it was 6200 nM; in that of `Cn1ccc(NS(=O)(=O)c2ccc(Oc3ccc(Cl)cc3-c3ccnn3C)c(C#N)c2)n1` [Example 887, 4-[4-chloro-2-(1-methyl-1H-pyrazol-5-yl)phenoxy]-3-cyano-N-(1-methyl-1H-pyrazol-3-yl)benzenesulfonamide], 9000 nM.

`Cc1nnc(NS(=O)(=O)c2ccc(Oc3ccc(Cl)cc3-c3ccnn3C)c(C#N)c2)s1` [Example 888, 4-[4-chloro-2-(1-methyl-1H-pyrazol-5-yl)phenoxy]-3-cyano-N-(5-methyl-1,3,4-thiadiazol-2-yl)benzenesulfonamide]: the IC50 is 920 nM. Turning to `N#Cc1cc(S(=O)(=O)Nc2ncns2)ccc1Oc1ccc(F)cc1-c1cocn1` [Example 889, 3-cyano-4-[4-fluoro-2-(1,3-oxazol-4-yl)phenoxy]-N-1,2,4-thiadiazol-5-ylbenzenesulfonamide], the IC50 was 670 nM. Turning to `CSc1nnc(NS(=O)(=O)c2ccc(Oc3ccc(Cl)cc3-c3ccnn3C)c(C#N)c2)s1` [Example 891, 4-[4-chloro-2-(1-methyl-1H-pyrazol-5-yl)phenoxy]-3-cyano-N-[5-(methylthio)-1,3,4-thiadiazol-2-yl]benzenesulfonamide], the IC50 was 780 nM.

For the compound `Cc1cnc(NS(=O)(=O)c2ccc(Oc3ccc(Cl)cc3-c3ccnn3C)c(C#N)c2)cn1` [Example 892, 4-[4-chloro-2-(1-methyl-1H-pyrazol-5-yl)phenoxy]-3-cyano-N-(5-methylpyrazin-2-yl)benzenesulfonamide], the IC50 is above 10000 nM. As to `CSc1nc(NS(=O)(=O)c2ccc(Oc3ccc(Cl)cc3-c3ccnn3C)c(C#N)c2)ns1` [Example 893, 4-[4-chloro-2-(1-methyl-1H-pyrazol-5-yl)phenoxy]-3-cyano-N-[5-(methylthio)-1,2,4-thiadiazol-3-yl]benzenesulfonamide], the IC50 was 3800 nM. For `Cn1nccc1NS(=O)(=O)c1ccc(Oc2ccc(Cl)cc2-c2ccnn2C)c(C#N)c1` [Example 894, 4-[4-chloro-2-(1-methyl-1H-pyrazol-5-yl)phenoxy]-3-cyano-N-(1-methyl-1H-pyrazol-5-yl)benzenesulfonamide], the IC50 was above 10000 nM.

Take `Cn1nccc1-c1cc(Cl)ccc1Oc1ccc(S(=O)(=O)Nc2cncnc2)cc1C#N` [Example 895, 4-[4-chloro-2-(1-methyl-1H-pyrazol-5-yl)phenoxy]-3-cyano-N-pyrimidin-5-ylbenzenesulfonamide]: the IC50 is above 30000 nM.

In the case of `N#Cc1cc(S(=O)(=O)Nc2ncns2)ccc1Oc1ccc(Cl)cc1-c1cc(N2CCOCC2)ncn1` [Example 896, 4-[4-chloro-2-(6-morpholin-4-ylpyrimidin-4-yl)phenoxy]-3-cyano-N-1,2,4-thiadiazol-5-ylbenzenesulfonamide], the IC50 is 340 nM. In the case of `O=S(=O)(Nc1ncns1)c1cc(F)c(Oc2ccc(OC(F)(F)F)cc2-c2ccnnc2)cc1F` [Example 897, 2,5-difluoro-4-[2-pyridazin-4-yl-4-(trifluoromethoxy)phenoxy]-N-1,2,4-thiadiazol-5-ylbenzenesulfonamide] it was 5.8 nM; in that of `O=S(=O)(Nc1ncns1)c1ccc(Oc2ccc(Cl)cc2-c2ccnnc2)c(Cl)c1` [Example 898, 3-chloro-4-(4-chloro-2-pyridazin-4-ylphenoxy)-N-1,2,4-thiadiazol-5-ylbenzenesulfonamide], 5.1 nM; in that of `N#Cc1cc(S(=O)(=O)Nc2nncs2)ccc1Oc1ccc(Cl)cc1-c1ccnc(N2CCOCC2)c1` [Example 899, 4-[4-chloro-2-(2-morpholin-4-ylpyridin-4-yl)phenoxy]-3-cyano-N-1,3,4-thiadiazol-2-ylbenzenesulfonamide], 18 nM.

Turning to `O=S(=O)(Nc1ncns1)c1ccc(Oc2ccc(OC(F)(F)F)cc2-c2ccnnc2)c(Cl)c1` [Example 900, 3-chloro-4-[2-pyridazin-4-yl-4-(trifluoromethoxy)phenoxy]-N-1,2,4-thiadiazol-5-ylbenzenesulfonamide], the half-inhibitory concentration (IC50) was 2.8 nM. In the case of `N#Cc1cc(S(=O)(=O)Nc2ncns2)ccc1Oc1ccc(Cl)cc1-c1ccnc(NC2CCC2)c1` [Example 902, 4-{4-chloro-2-[2-(cyclobutylamino)pyridin-4-yl]phenoxy}-3-cyano-N-1,2,4-thiadiazol-5-ylbenzenesulfonamide] it was 2.3 nM; in that of `O=S(=O)(Nc1ncns1)c1cc(F)c(Oc2ccc(C(F)(F)F)cc2-c2ccc(Cl)nn2)cc1F` [Example 904, 4-[2-(6-chloropyridazin-3-yl)-4-(trifluoromethyl)phenoxy]-2,5-difluoro-N-1,2,4-thiadiazol-5-ylbenzenesulfonamide], 390 nM. In the case of `N#Cc1cc(S(=O)(=O)Nc2ncns2)ccc1Oc1ccc(Cl)cc1-c1ccsn1` [Example 905, 4-(4-chloro-2-isothiazol-3-ylphenoxy)-3-cyano-N-1,2,4-thiadiazol-5-ylbenzenesulfonamide] it was 190 nM.

What is called IC50 is the midpoint of a concentration-inhibition curve.
